The CheMixHub viscosity set
± gives the uncertainty stated by the source.

Test: xn = mol fraction of the nth substance listed

CC[NH+](C)CC.[Br-] + O
viscosity [mPa·s], 100 kPa
Settings	298.15 K	303.15 K	308.15 K	313.15 K	318.15 K	323.15 K
x1 = 0.016	1.149 ± 0.069	1.026 ± 0.062	0.925 ± 0.056	0.841 ± 0.051	0.771 ± 0.047	0.712 ± 0.043
x1 = 0.0229	1.243 ± 0.075	1.107 ± 0.067	0.996 ± 0.06	0.903 ± 0.055	0.825 ± 0.05	0.759 ± 0.046
x1 = 0.0355	1.458 ± 0.088	1.295 ± 0.078	1.162 ± 0.07	1.051 ± 0.064	0.955 ± 0.058	0.873 ± 0.053
x1 = 0.0793	2.422 ± 0.15	2.124 ± 0.13	1.882 ± 0.11	1.681 ± 0.1	1.513 ± 0.092	1.368 ± 0.083
x1 = 0.0986	3.011 ± 0.18	2.633 ± 0.16	2.318 ± 0.14	2.061 ± 0.12	1.843 ± 0.11	1.658 ± 0.1
x1 = 0.1267	4.05 ± 0.24	3.504 ± 0.21	3.07 ± 0.19	2.707 ± 0.16	2.389 ± 0.14	2.142 ± 0.13
x1 = 0.1508	5.154 ± 0.31	4.438 ± 0.27	3.862 ± 0.23	3.379 ± 0.2	2.988 ± 0.18	2.658 ± 0.16
x1 = 0.1806	6.655 ± 0.4	5.646 ± 0.34	4.861 ± 0.3	4.22 ± 0.26	3.695 ± 0.22	3.267 ± 0.2
x1 = 0.2148	9.109 ± 0.55	7.787 ± 0.47	6.643 ± 0.4	5.74 ± 0.35	5.002 ± 0.3	4.39 ± 0.27
x1 = 0.2422	11.37 ± 0.69	9.636 ± 0.59	8.251 ± 0.5	7.129 ± 0.43	6.196 ± 0.38	5.432 ± 0.33
x1 = 0.2866	15.38 ± 0.94	12.8 ± 0.78	10.79 ± 0.66	9.194 ± 0.56	7.919 ± 0.48	6.897 ± 0.42
x1 = 0.3332	21.46 ± 1.3	17.54 ± 1.1	14.61 ± 0.89	12.29 ± 0.75	10.49 ± 0.64	9.032 ± 0.55
x1 = 0.4014	33.72 ± 2.1	26.93 ± 1.7	21.98 ± 1.3	18.17 ± 1.1	15.2 ± 0.93	12.89 ± 0.79

CCCCOCCO + CCCCCCC
viscosity [mPa·s], 101 kPa
Settings	303.15 K	313.15 K
x1 = 0.0365	0.407 ± 0.006	0.364 ± 0.005
x1 = 0.1077	0.484 ± 0.006	0.426 ± 0.006
x1 = 0.2126	0.626 ± 0.008	0.534 ± 0.007
x1 = 0.316	0.799 ± 0.009	0.661 ± 0.008
x1 = 0.417	0.987 ± 0.011	0.797 ± 0.009
x1 = 0.5114	1.177 ± 0.012	0.941 ± 0.01
x1 = 0.6155	1.411 ± 0.014	1.116 ± 0.012
x1 = 0.7469	1.741 ± 0.017	1.359 ± 0.014
x1 = 0.845	2.011 ± 0.019	1.55 ± 0.016
x1 = 0.9057	2.162 ± 0.02	1.654 ± 0.017
x1 = 0.9663	2.306 ± 0.021	1.784 ± 0.017
